Test [1] addresses MCL-1/Bim interaction (recombinant human MCL-1 protein, residues 171-327; biotinylated human Bim peptide, residues 51-76) (Homo sapiens (Human), UniProt Q07820). The test can be described thus: MCL-1/Bim Binding AlphaLISA Assay. As to conditions: 0.0625 nM 6xHis-Mcl-1 (171-327), 0.0625 nM biotinylated-Bim peptide. Summed up: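 AlphaLISA with 0.0625 nM His-tagged MCL-1 (171-327) and 0.0625 nM biotinylated Bim (51-76) in 20 mM Hepes pH 7.5, 150 mM NaCl, 0.002% Brij 35, 1 mM DTT, 0.01% BSA. Compound preincubated 1 h with MCL-1, then Bim 2 h, acceptor beads 1 h, donor beads 1 h; percent inhibition against DMSO and no-protein/no-peptide controls.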

The test system of another test is SKBR3 cells. The test can be described thus: SKBR3 Cell Viability Assay (CellTiter Glo). To be noted: CellTiter Glo luminescence, read-out: MCL-1 CV SKBR3 EC50. Format: cell-based. The procedure, abridged: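 SKBR3 cells (6,000/well) in McCoy 5A + 10% FBS exposed to serially diluted compound for 72 h at 37° C., 5% CO2. Viability by CellTiter Glo luminescence; % inhibition normalized to DMSO (negative) and 10 μM puromycin (positive).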
On the technique in general: Cellular ATP, detected with luciferase, serves as a proxy for viable cell number.

Read-outs that look alike come from different tables or passages of the source.

Chain of MCL-1/Bim interaction (recombinant human MCL-1 protein, residues 171-327; biotinylated human Bim peptide, residues 51-76) (Q07820 171-327): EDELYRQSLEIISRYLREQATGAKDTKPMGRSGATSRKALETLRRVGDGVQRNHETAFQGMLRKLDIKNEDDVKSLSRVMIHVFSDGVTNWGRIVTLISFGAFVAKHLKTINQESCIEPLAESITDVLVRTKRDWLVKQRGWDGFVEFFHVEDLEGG

Take `CO[C@H]1/C=C/CCC[S@@](=O)(NC(=O)c2cc3ccccc3n2C)=NC(=O)c2ccc3c(c2)N(C[C@@H]2CC[C@H]21)C[C@@]1(CCCc2cc(Cl)ccc21)CO3` [Example 98]: the concentration for half-maximal inhibition (IC50) (commonly the concentration that gives 50% inhibition) in test [1] came out at 0.3 nM. In addition, the EC50 (usually the midpoint of the concentration-response curve) with SKBR3 cells (Homo sapiens, SK-BR-3, 72 h) stood at 2190 nM.
For `COCCCn1cc(C(=O)N[S@@]2(=O)=NC(=O)c3ccc4c(c3)N(C[C@@H]3CC[C@H]3[C@@H](OC)/C=C/C[C@H](C)C2)C[C@@]2(CCCc3cc(Cl)ccc32)CO4)cc1COC` [Example 338], in that order: 0.09 nM and 124 nM.
With `CO[C@H]1/C=C/C[C@H](C)C[S@@](=O)(NC(=O)N[C@@H]2C[C@H]2c2cnn(C)c2)=NC(=O)c2ccc3c(c2)N(C[C@@H]2CC[C@H]21)C[C@@]1(CCCc2cc(Cl)ccc21)CO3` (single isomer, unassigned) [Example 183], in test [1], the IC50 came to 0.132 nM. Besides, in the test on SKBR3 cells (72 hours), the EC50 turned out to be 195 nM.
In the case of `COc1nn(C)cc1C(=O)N[S@@]1(=O)=NC(=O)c2ccc3c(c2)N(C[C@@H]2CC[C@H]2[C@@H](OC)/C=C/CCC1)C[C@@]1(CCCc2cc(Cl)ccc21)CO3` [Example 389], the 50% inhibitory concentration (IC50) in test [1] was determined as 0.075 nM. The EC50 in the test on SKBR3 cells (Homo sapiens, SK-BR-3, 72 h) was determined as 304 nM.
On the same counts, the results for `CO[C@H]1/C=C/C[C@H](C)C[S@@](=O)(NC(=O)c2cc3n(n2)CCOC3)=NC(=O)c2ccc3c(c2)N(C[C@@H]2CC[C@H]21)C[C@@]1(CCCc2cc(Cl)ccc21)CO3` [Example 424] are 0.037 nM and 147 nM.
For `CO[C@H]1/C=C/C[C@H](C)C[S@@](=O)(NC(=O)N[C@H]2C[C@H](OC(=O)N(C)C)C2)=NC(=O)c2ccc3c(c2)N(C[C@@H]2CC[C@H]21)C[C@@]1(CCCc2cc(Cl)ccc21)CO3` [Example 360], in that order: 0.052 nM and 139 nM.
On to `CCn1cc(C(=O)N[S@@]2(=O)=NC(=O)c3ccc4c(c3)N(C[C@@H]3CC[C@H]3[C@@H](OC)/C=C/CCC2)C[C@@]2(CCCc3cc(Cl)ccc32)CO4)cn1` [Example 405], for which the concentration for half-maximal inhibition (IC50) in test [1] came to 0.113 nM. In addition, in the test with SKBR3 cells (Homo sapiens, SK-BR-3, 72 h), the EC50 is 196 nM.
On the same counts, the results for `CO[C@H]1/C=C/C[C@H](C)C[S@@](=O)(NC(=O)N[C@@H]2C[C@@H]2OC)=NC(=O)c2ccc3c(c2)N(C[C@@H]2CC[C@H]21)C[C@@]1(CCCc2cc(Cl)ccc21)CO3` [Example 318] are 0.066 nM and 74.4 nM.
For `CO[C@H]1/C=C/C[C@H](C)C[S@@](=O)(NC(=O)N2CC3(C2)CC3(F)F)=NC(=O)c2ccc3c(c2)N(C[C@@H]2CC[C@H]21)C[C@@]1(CCCc2cc(Cl)ccc21)CO3` [Example 324], in that order: 0.058 nM and 37.9 nM.
Turning to `COc1nn(C)cc1C(=O)N[S@@]1(=O)=NC(=O)c2ccc3c(c2)N(C[C@@H]2CC[C@H]2[C@@H](OC)/C=C/[C@@H](OC)CC1)C[C@@]1(CCCc2cc(Cl)ccc21)CO3` [Example 394], in test [1], the IC50 came to 1.72 nM. Further, in the test on SKBR3 cells (Homo sapiens, SK-BR-3, 72 h), the half-maximal effective concentration (EC50) was found to be 4750 nM.
As for `CO[C@H]1/C=C/C[C@H](C)C[S@@](=O)(NC(=O)N2CC(N3CCN4CCOC[C@@H]4C3)C2)=NC(=O)c2ccc3c(c2)N(C[C@@H]2CC[C@H]21)C[C@@]1(CCCc2cc(Cl)ccc21)CO3` [Example 297], the half-maximal inhibitory concentration (IC50) in test [1] was found to be 0.033 nM. Moreover, in the test on SKBR3 cells (Homo sapiens, SK-BR-3, 72 hours), the half-maximal effective concentration (EC50) was 69 nM.
Turning to `CO[C@H]1/C=C/C[C@H](C)C[S@@](=O)(NC(=O)c2cn(C)nc2C2CC2)=NC(=O)c2ccc3c(c2)N(C[C@@H]2CC[C@H]21)C[C@@]1(CCCc2cc(Cl)ccc21)CO3` [Example 164], the IC50 in test [1] was found to be 0.141 nM. The concentration for a half-maximal effect (EC50) in the test with SKBR3 cells (Homo sapiens, SK-BR-3, 72 h) is 106 nM.
In the case of `CO[C@H]1/C=C/C[C@H](C)C[S@@](=O)(NC(=O)N[C@H]2C[C@H](COC(=O)N(C)C)C2)=NC(=O)c2ccc3c(c2)N(C[C@@H]2CC[C@H]21)C[C@@]1(CCCc2cc(Cl)ccc21)CO3` [Example 335], the half-maximal inhibitory concentration (IC50) in test [1] stood at 0.235 nM. Moreover, the concentration giving a half-maximal response (EC50) in the test with SKBR3 cells (Homo sapiens, SK-BR-3, 72 h) came out at 66.2 nM.
On the same counts, the results for `CO[C@H]1/C=C/C[C@H](C)C[S@@](=O)(NC(=O)N2CCn3cccc3C2)=NC(=O)c2ccc3c(c2)N(C[C@@H]2CC[C@H]21)C[C@@]1(CCCc2cc(Cl)ccc21)CO3` [Example 457] are 0.085 nM and 392 nM.
For `CO[C@H]1/C=C/CCC[S@@](=O)(NC(=O)C#CC(C)(C)C)=NC(=O)c2ccc3c(c2)N(C[C@@H]2CC[C@H]21)C[C@@]1(CCCc2cc(Cl)ccc21)CO3` [Example 36], in that order: 8.1 nM and 10000 nM.
For `CO[C@H]1/C=C/C[C@H](C)C[S@@](=O)(NC(=O)N2CCN(C(=O)OC(C)(C)C)[C@H](C)C2)=NC(=O)c2ccc3c(c2)N(C[C@@H]2CC[C@H]21)C[C@@]1(CCCc2cc(Cl)ccc21)CO3` [Example 382], in that order: 1.4 nM and 562 nM.
Regarding `CO[C@H]1/C=C/CCC[S@@](=O)(NC(=O)C2CCC2)=NC(=O)c2ccc3c(c2)N(C[C@@H]2CC[C@H]21)C[C@@]1(CCCc2cc(Cl)ccc21)CO3` [Example 31], the IC50 in test [1] worked out at 3.1 nM. Further, in the test with SKBR3 cells (Homo sapiens, SK-BR-3, 72 h), the 50% effective concentration (EC50) was determined as 2590 nM.
On the same counts, the results for `COC(=O)c1ccn2c1CN(C(=O)N[S@@]1(=O)=NC(=O)c3ccc4c(c3)N(C[C@@H]3CC[C@H]3[C@@H](OC)/C=C/C[C@H](C)C1)C[C@@]1(CCCc3cc(Cl)ccc31)CO4)CC2` [Example 383] are 0.659 nM and 1200 nM.
For `CO[C@H]1/C=C/C[C@H](C)C[S@@](=O)(NC(=O)N2CC(C)(OC)C2)=NC(=O)c2ccc3c(c2)N(C[C@@H]2CC[C@H]21)C[C@@]1(CCCc2cc(Cl)ccc21)CO3` [Example 363], the IC50 in test [1] was 0.042 nM. The EC50 in the test on SKBR3 cells (Homo sapiens, SK-BR-3, 72 h) came out at 46.5 nM.
For `CO[C@H]1/C=C/C[C@H](C)C[S@@](=O)(NC(=O)C2CC(C)(O)C2)=NC(=O)c2ccc3c(c2)N(C[C@@H]2CC[C@H]21)C[C@@]1(CCCc2cc(Cl)ccc21)CO3` (stereo partly drawn) [Example 140], in that order: 0.043 nM and 38.6 nM.
For `COc1nn(C)cc1C(=O)N[S@@]1(=O)=NC(=O)c2ccc3c(c2)N(C[C@@H]2CC[C@H]2[C@@H](OC(C)=O)/C=C/C[C@H](C)[C@H]1C)C[C@@]1(CCCc2cc(Cl)ccc21)CO3` [Example 249], in that order: 0.14 nM and 222 nM.
On the same counts, the results for `CO[C@H]1/C=C/C[C@H](C)C[S@@](=O)(NC(=O)N[C@@H]2CCOC2)=NC(=O)c2ccc3c(c2)N(C[C@@H]2CC[C@H]21)C[C@@]1(CCCc2cc(Cl)ccc21)CO3` [Example 155] are 0.06 nM and 43 nM.
For the compound `COc1cn(C)cc1C(=O)N[S@@]1(=O)=NC(=O)c2ccc3c(c2)N(C[C@@H]2CC[C@H]2[C@@H](O)/C=C/C[C@H](C)[C@H]1C)C[C@@]1(CCCc2cc(Cl)ccc21)CO3` [Example 359], the 50% inhibitory concentration (IC50) in test [1] came out at 0.038 nM. The EC50 in the test on SKBR3 cells (72 hours) was determined as 19 nM.
Turning to `CO[C@H]1/C=C/CCC[S@@](=O)(NC(=O)COc2ccnn2C)=NC(=O)c2ccc3c(c2)N(C[C@@H]2CC[C@H]21)C[C@@]1(CCCc2cc(Cl)ccc21)CO3` [Example 100], the 50% inhibitory concentration (IC50) in test [1] turned out to be 0.2 nM. The half-maximal effective concentration (EC50) with SKBR3 cells (Homo sapiens, SK-BR-3, 72 h) was determined as 2260 nM.
On the same counts, the results for `COc1nc(N2CCOCC2)ncc1C(=O)N[S@@]1(=O)=NC(=O)c2ccc3c(c2)N(C[C@@H]2CC[C@H]2[C@@H](OC)/C=C/C[C@H](C)C1)C[C@@]1(CCCc2cc(Cl)ccc21)CO3` [Example 462] are 0.251 nM and 345 nM.
For `CO[C@H]1/C=C/C[C@H](C)C[S@@](=O)(NC(=O)c2cc(CN3CCN(C4COC4)CC3)n(C)c2)=NC(=O)c2ccc3c(c2)N(C[C@@H]2CC[C@H]21)C[C@@]1(CCCc2cc(Cl)ccc21)CO3` [Example 309], the 50% inhibitory concentration (IC50) in test [1] stood at 0.029 nM. Besides, the concentration for a half-maximal effect (EC50) in the test on SKBR3 cells (Homo sapiens, SK-BR-3, 72 h) worked out at 10.5 nM.
For `CCn1cc(C(=O)N[S@@]2(=O)=NC(=O)c3ccc4c(c3)N(C[C@@H]3CC[C@H]3[C@@H](OC)/C=C/C[C@H](C)[C@H]2C)C[C@@]2(CCCc3cc(Cl)ccc32)CO4)cn1` [Example 153], in that order: 0.086 nM and 69.5 nM.
For `COC(=O)N[C@H](C(=O)N1CCN(C(=O)N[S@@]2(=O)=NC(=O)c3ccc4c(c3)N(C[C@@H]3CC[C@H]3[C@@H](OC)/C=C/C[C@H](C)C2)C[C@@]2(CCCc3cc(Cl)ccc32)CO4)C[C@@H]1C)C(C)C` [Example 285], in that order: 0.131 nM and 79.7 nM.
On the same counts, the results for `CO[C@H]1/C=C/C[C@H](C)C[S@@](=O)(NC(=O)C2CC2c2cnn(C)c2)=NC(=O)c2ccc3c(c2)N(C[C@@H]2CC[C@H]21)C[C@@]1(CCCc2cc(Cl)ccc21)CO3` (stereo partly drawn) [Example 425] are 0.078 nM and 171 nM.
As to `CO[C@H]1/C=C/C[C@H](C)C[S@@](=O)(NC(=O)NC2CCOCC2)=NC(=O)c2ccc3c(c2)N(C[C@@H]2CC[C@H]21)C[C@@]1(CCCc2cc(Cl)ccc21)CO3` [Example 442], the IC50 in test [1] came out at 0.134 nM. Besides, the concentration giving a half-maximal response (EC50) in the test on SKBR3 cells (Homo sapiens, SK-BR-3, 72 h) was 122 nM.
For `CO[C@H]1CCC[C@H](C)C[S@@](=O)(NC(=O)NC2CC2)=NC(=O)c2ccc3c(c2)N(C[C@@H]2CC[C@H]21)C[C@@]1(CCCc2cc(Cl)ccc21)CO3` [Example 170], in that order: 0.06 nM and 210 nM.
For `CO[C@H]1/C=C/C[C@H](C)C[S@@](=O)(NC(=O)c2cc3n(c2)CCN(C(C)=O)C3)=NC(=O)c2ccc3c(c2)N(C[C@@H]2CC[C@H]21)C[C@@]1(CCCc2cc(Cl)ccc21)CO3` [Example 180], in that order: 0.092 nM and 134 nM.
On the same counts, the results for `CO[C@H]1/C=C/C[C@H](C)[C@@H](C)[S@@](=O)(NC(=O)c2cc3n(c2)CCOC3)=NC(=O)c2ccc3c(c2)N(C[C@@H]2CC[C@H]21)C[C@@]1(CCCc2cc(Cl)ccc21)CO3` [Example 137] are 0.491 nM and 104 nM.

Values taken from US10703733B2, “MCL-1 inhibitors” (Gilead Sciences, Inc., priority 2018, dated 2020).
